Assay results reported in patent US7687476B2, “Specific inhibitors of acute and chronic inflammation” (priority 2001, dated 2010).
“Also recorded” adds a separate entry of the source.

What was measured:
[1] = test system: L-cells transfected with E-selectin; test: static adhesion of neutrophils to L-cells transfected with E-selectin (myeloperoxidase readout); assay type: cell-based, human; conditions: for adhesion of neutrophils to E-selectin transfected L-cells: preincubation 45 min, adhesion 20 min at 37° C., static assay; for order of potency of lead compounds: proposed from the adhesion experiments
Description: L-cells permanently transfected with full-length E-selectin by electroporation. Human neutrophils were isolated from EDTA whole blood by density centrifugation. Purity and total number were determined by standard haematology instruments, L-cells were grown in 96-well microtiter plates.
L-cells and neutrophils were pre-incubated with respective substances for 45 min at 37° C. Neutrophils were then allowed to adhere to L-cells in the presence of different substances for 20 min at 37° C. Non-adherent cells were removed by repeated washings and the number of adherent cells determined by measuring myeloperoxidase content. Since binding of neutrophils to selectin is calcium dependent, EGTA (which chelates calcium) was used as a negative control.
L-cells and neutrophils were preincubated with decreasing concentrations of maltose, fucose, and thymidine (1 mM, 10 μM, 0.1 μM, and 1 nM) for 45 min at 37° C. Neutrophils were then allowed to adhere to L-cells in the presence of respective substances for 20 min at 37° C. Non-adherent cells were removed by repeated washings and the number of adherent cells determined by measuring myeloperoxidase content.
L-cells were grown in 96-well microtiter plates. L-cells and neutrophils were preincubated with decreasing concentrations of EGTA (10 mM, 1 mM, 0.1 mM, 10 μM) for 45 min at 37° C. Neutrophils were then allowed to adhere to L-cells in the presence of EGTA for 20 min at 37° C. Non-adherent cells were removed by repeated washings and the number of adherent cells was determined by measuring myeloperoxidase content.

myeloperoxidase = target: T1, myeloperoxidase (Homo sapiens, UniProt P05164); test: effect on neutrophil myeloperoxidase activity; assay type: cell-based; conditions: neutrophils, 100 μM to 10 nM, 2 hours at 37° C.
T1 construct: endogenous in cells; host or cells: human neutrophils isolated from EDTA whole blood
T1 sequence (P05164 279-745 limits assumed): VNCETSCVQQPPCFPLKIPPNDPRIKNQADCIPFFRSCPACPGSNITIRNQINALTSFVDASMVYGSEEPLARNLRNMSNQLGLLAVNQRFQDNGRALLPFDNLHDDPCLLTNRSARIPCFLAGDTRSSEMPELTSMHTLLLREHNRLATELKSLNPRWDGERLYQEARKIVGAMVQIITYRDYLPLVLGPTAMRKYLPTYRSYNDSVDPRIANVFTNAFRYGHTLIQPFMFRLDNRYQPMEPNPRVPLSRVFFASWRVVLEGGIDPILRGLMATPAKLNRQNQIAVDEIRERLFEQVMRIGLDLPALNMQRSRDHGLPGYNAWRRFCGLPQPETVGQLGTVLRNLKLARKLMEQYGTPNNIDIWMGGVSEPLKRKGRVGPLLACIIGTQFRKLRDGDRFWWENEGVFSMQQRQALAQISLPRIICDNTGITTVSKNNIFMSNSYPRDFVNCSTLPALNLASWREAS
T1 sequence (P05164 165-273 limits assumed): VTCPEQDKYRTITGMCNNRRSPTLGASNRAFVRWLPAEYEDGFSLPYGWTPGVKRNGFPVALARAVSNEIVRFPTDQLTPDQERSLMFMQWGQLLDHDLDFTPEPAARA
Description: Since the number of adherent neutrophils are calculated by measuring neutrophil myeloperoxidase activity, it could be argued that these substances could have a direct effect on myeloperoxidase activity and thus create a methodological artifact. Neutrophils were incubated with different concentrations of uridine, isomaltitol, and 4-thiouridine (100 μM, 10 μM, 1 μM, 100 nM, 10 nM) for 2 hours at 37° C.

TNF stimulated HUVEC = test: neutrophil adhesion to TNF stimulated HUVEC; assay type: cell-based, human; conditions: for adhesion of neutrophils to TNF stimulated / activated HUVEC (in words) / inhibition of adhesion of neutrophils to TNF stimulated HUVEC: HUVEC stimulated with TNF 4 h; for inhibition of adhesion of neutrophils to TNF stimulated HUVEC: neutrophils preincubated 30 min at 37° C.
Description: To further extend the finding from L-cells the binding of neutrophils to TNF activated endothelium (HUVEC) was studied.
Endothelial cells were grown in 96-well microtiter plates to confluence. They were stimulated with TNF for 4 h at 37° C. Isolated neutrophils were incubated for 30 min at 37° C. with respective substances. The endothelial cells were washed after 4 h and 2×10^5 neutrophils were added to each well and the cells were allowed to adhere in the presence of the respective substances.

E-selectin = test: cell-ELISA of surface expression of E-selectin on stimulated endothelial cells; assay type: cell-based, human; conditions: simultaneous incubation of endothelium with different concentrations, 4 h at 37° C.
Description: The substances mentioned above should block the interaction of E-selectin with it's ligand and should not have any effect on cytokine induced up-regulation of adhesion molecules. A cell-ELISA was performed to assess the surface expression of adhesion molecules. Endothelial cells were grown in microtiter plates, stimulated with TNF or IL-1 with or without respective substances for 4 h at 37° C. After stimulation the cells were washed and fixed with formaldehyde. A cell-ELISA was performed in analogy to regular ELISA using primary and secondary antibodies.

[2] = test system: Colo 201 cells / L-cells transfected with E-selectin; test: adhesion of colon cancer cells Colo 201 to L-cells transfected with E-selectin; assay type: cell-based; conditions: E-selectin transfected L-cells (text of b26 says HUVEC)
Description: Although protein ligands have been characterised for the selectins, they recognise a number of carbohydrate and non-carbohydrate ligands. The hypothesis is that these compounds should block E-selectin-SLe^x interaction. To confirm this it was also tested if these substances can block adhesion of Colo 201 cells to L-cells.

myeloperoxidase activity (myeloperoxidase)	Compound	adhesion of neutrophils to E-selectin transfected L-cells [1]	adhesion of neutrophils to TNF stimulated / activated HUVEC (in words) (TNF stimulated HUVEC)	inhibition of adhesion of neutrophils to TNF stimulated HUVEC (TNF stimulated HUVEC)	concentration level at which the maximal effect on neutrophil adhesion to HUVEC occurs (TNF stimulated HUVEC; TNF stimulated HUVEC)	TNF induced up-regulation of E-selectin (E-selectin)	order of potency of lead compounds [1]	adhesion of Colo 201 cells [2]
–	OC[C@H]1O[C@H](O[C@H]2[C@H](O)[C@@H](O)C(O)O[C@@H]2CO)[C@H](O)[C@@H](O)[C@@H]1O (mixture of isomers) [Maltose, maltose, reference compound]	did not affect the adhesion of neutrophils	–	–	–	–	–	–
do not affect myeloperoxidase activity	O=c1[nH]c(=S)ccn1[C@@H]1O[C@H](CO)[C@@H](O)[C@H]1O [4-thiouridine]	could block adhesion of neutrophils	dose dependent inhibition	60%	micromolar levels	did not affect TNF induced up-regulation of E-selectin	4-thiouridine>isomaltitol>uridine	–
–	O=C(O)CN(CCOCCOCCN(CC(=O)O)CC(=O)O)CC(=O)O [EGTA, reference compound]	consistently blocks adhesion of neutrophils; also recorded: dose dependent inhibition of neutrophils adhesion to L-cells	blocked adhesion of neutrophils; also recorded: dose dependent inhibition of neutrophils adhesion to activated HUVEC	–	–	–	–	blocked adhesion of Colo 201 cells
–	C[C@H](O)[C@@H](O)[C@@H](O)[C@H](O)C=O [fucose, reference compound]	did not affect the adhesion of neutrophils	–	–	–	–	–	–
do not affect myeloperoxidase activity	OC[C@H](O)[C@@H](O)[C@H](O)[C@H](O)CO[C@H]1O[C@H](CO)[C@@H](O)[C@H](O)[C@H]1O [isomaltitol]	could block adhesion of neutrophils	–	roughly 30%	–	–	4-thiouridine>isomaltitol>uridine	–
–	Cc1cn([C@H]2C[C@H](O)[C@@H](CO)O2)c(=O)[nH]c1=O [thymidine, reference compound]	did not affect the adhesion of neutrophils	–	–	–	–	–	–
do not affect myeloperoxidase activity	O=c1ccn([C@@H]2O[C@H](CO)[C@@H](O)[C@H]2O)c(=O)[nH]1 [uridine]	could block adhesion of neutrophils	–	–	–	–	4-thiouridine>isomaltitol>uridine	–
